“And” between values parts separate entries of the source, which are not always exact repeats. Identical values can stand only once.
Legend:
Total polyphenol content = settings: 10 mg/mL antrocin
Protocol: We added 40–50 μL of sample to a 96-well plate and made it up to 100 μL with ddH2O. For each sample, a parallel sample was prepared as a sample background control. Vanillic acid was used as a positive control. We added 50 μL of 50 mM vanillic acid solution per well to the desired wells and made it up to 100 μL with ddH2O. We adjusted the volume of all standard curves to 100 µL with ddH2O. We then added 20 μL PC (Phenolic Compounds) Probe to the standard curve and sample reaction wells, and 20 μL PC Assay Buffer to the sample background wells. For standard curve preparation, we added 0, 2, 4, 6, 8, and 10 μL of 1 mM catechin standards to clear 96-well plates to generate 0, 2, 4, 6, 8, and 10 nmol/well catechin standard, respectively. We adjusted the volume of all standard curves to 100 µL with ddH2O. […] The absorbance was measured at 480 nm.
We subtracted the 0 nmol standard OD480 value from all standard curve readings and drew a catechin standard curve. If the sample background well reads were significant, the sample background control reads were subtracted from their paired sample reads. […]
B stands for the amount of diazo chromophore, calculated from the standard curve (nmol of catechin); D stands for the sample dilution factor (for undiluted samples, D = 1); V stands for the volume of sample added to the well (in µL).

Sprague Dawley rats = test: 28-day oral toxicity test: clinical signs, mortality, overall result

In the case of C=C1CC[C@H]2C(C)(C)CCC[C@@]23C(=O)OC[C@@H]13 [Antrocin, (-)-Antrocin], the “Total Phenolic Contents (mM Catechin Equivalents)” value (Total polyphenol content) is reported as 0.016 ± 0.000 mM Catechin equivalents and 0.016 ± 0.000 ^1 mM Catechin equivalents, the “toxic effects according to hematology, serum chemistry, urine analysis, histopathological examinations” value (Sprague Dawley rats; 7.5 or 37.5 mg/kg oral 28 d) is reported as “did not produce any toxic effects” and the “highest dosage with no adverse effect” value (Sprague Dawley rats; 28-day oral toxicity test in rats) is reported as 37.5 mg/kg/day.
